Test results published in the NIST ThermoML archive (doi:10.1016/j.fluid.2010.05.017).
± gives the expanded uncertainty stated by the source.

Columns and labels:
[1] = xn = mol fraction of the nth substance listed; conditions: 298.15 K, 101 kPa, Liquid, Vibrating tube method
[2] = 298.15 K; 101.33 kPa; Liquid; Vibrating tube method
[3] = refractive index (Na D-line) (dimensionless); conditions: 298.15 K; 101.33 kPa; Liquid; Standard Abbe refractometry

Cc1ccccc1C [1,2-dimethylbenzene] + CCCCCC
mass density ([1]; x2 = 0): 875.37 ± 0.24 kg/m3 | mass density ([1]; x2 = 0.045): 865.52 ± 2.7 kg/m3 | mass density ([1]; x2 = 0.097): 853.5 ± 2.7 kg/m3 | mass density ([1]; x2 = 0.189): 832.71 ± 2.7 kg/m3 | mass density ([1]; x2 = 0.295): 809.05 ± 2.7 kg/m3 | mass density ([1]; x2 = 0.397): 786.32 ± 2.7 kg/m3 | mass density ([1]; x2 = 0.495): 764.54 ± 2.7 kg/m3 | mass density ([1]; x2 = 0.597): 742.07 ± 2.6 kg/m3 | mass density ([1]; x2 = 0.697): 720.32 ± 2.6 kg/m3 | mass density ([1]; x2 = 0.797): 698.71 ± 2.6 kg/m3 | mass density ([1]; x2 = 0.901): 676.45 ± 2.6 kg/m3 | mass density ([1]; x2 = 0.95): 665.83 ± 2.6 kg/m3

Cc1cccc(C)c1 [1,3-dimethylbenzene] + CCCCCC
mass density ([1]; x2 = 0): 859.79 ± 0.24 kg/m3 | mass density ([1]; x2 = 0.05): 849.62 ± 2.5 kg/m3 | mass density ([1]; x2 = 0.098): 839.51 ± 2.5 kg/m3 | mass density ([1]; x2 = 0.194): 819.34 ± 2.5 kg/m3 | mass density ([1]; x2 = 0.297): 797.9 ± 2.5 kg/m3 | mass density ([1]; x2 = 0.398): 777.18 ± 2.5 kg/m3 | mass density ([1]; x2 = 0.498): 756.55 ± 2.5 kg/m3 | mass density ([1]; x2 = 0.6): 735.62 ± 2.5 kg/m3 | mass density ([1]; x2 = 0.699): 715.46 ± 2.5 kg/m3 | mass density ([1]; x2 = 0.793): 696.42 ± 2.4 kg/m3 | mass density ([1]; x2 = 0.896): 676.03 ± 2.4 kg/m3 | mass density ([1]; x2 = 0.948): 665.51 ± 2.4 kg/m3

Cc1ccc(C)cc1 [1,4-dimethylbenzene] + CCCCCC
mass density ([1]; x2 = 0): 856.59 ± 0.24 kg/m3 | mass density ([1]; x2 = 0.048): 847.14 ± 2.4 kg/m3 | mass density ([1]; x2 = 0.098): 836.82 ± 2.5 kg/m3 | mass density ([1]; x2 = 0.196): 816.92 ± 2.5 kg/m3 | mass density ([1]; x2 = 0.292): 797.23 ± 2.5 kg/m3 | mass density ([1]; x2 = 0.394): 776.41 ± 2.5 kg/m3 | mass density ([1]; x2 = 0.492): 756.57 ± 2.4 kg/m3 | mass density ([1]; x2 = 0.591): 736.73 ± 2.4 kg/m3 | mass density ([1]; x2 = 0.692): 716.48 ± 2.4 kg/m3 | mass density ([1]; x2 = 0.792): 696.69 ± 2.4 kg/m3 | mass density ([1]; x2 = 0.892): 676.71 ± 2.4 kg/m3 | mass density ([1]; x2 = 0.948): 665.7 ± 2.4 kg/m3

CCOS(=O)(=O)[O-].CC[n+]1cccc(C)c1 [1-ethyl-3-methylpyridinium ethylsulfate]
mass density [2]: 1219.61 ± 0.42 kg/m3 | refractive index [3]: 1.50591 ± 0.00071

CCCCCC [hexane] + Cc1ccc(C)cc1
mass density ([1]; x1 = 1): 655.19 ± 0.25 kg/m3

CCCCCC [hexane] + Cc1cccc(C)c1
mass density ([1]; x1 = 1): 655.19 ± 0.25 kg/m3

CCCCCC [hexane] + Cc1ccccc1C
mass density ([1]; x1 = 1): 655.19 ± 0.25 kg/m3
